Experimental data from ChEMBL document CHEMBL1201862, “PubChem BioAssay data set” (2004).
“And” between values parts separate entries of the source, which are not always exact repeats. Identical values can stand only once. The source made the active and inactive calls.

Experiments:
[1] = system: HEK293; assay: EBV LMP1 TES2 canonical NF-kB signalling blockers – cell-based, HEK293, luciferase, cherry-pick, dose response (AID 588343); type: functional; conditions: Homo sapiens
[2] = molecular target: T1, Carboxy-terminal domain RNA polymerase II polypeptide A small phosphatase 1 (Homo sapiens, UniProt Q9GZU7); assay: CTDSP1 inhibitors, concentration-response, biochemical, absorbance readout, ultra-high-throughput screen actives (AID 540297); type: functional
T1 sequence (Q9GZU7 whole entry): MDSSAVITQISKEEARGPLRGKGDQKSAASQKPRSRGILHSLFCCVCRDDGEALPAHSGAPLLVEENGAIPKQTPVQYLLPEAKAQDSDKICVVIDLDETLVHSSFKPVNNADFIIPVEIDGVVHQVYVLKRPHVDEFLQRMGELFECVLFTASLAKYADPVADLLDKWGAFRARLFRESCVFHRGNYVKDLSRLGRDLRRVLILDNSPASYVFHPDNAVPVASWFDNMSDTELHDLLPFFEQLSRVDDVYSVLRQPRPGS

[3] = molecular target: T2, Cytochrome P450 3A4 (Homo sapiens, UniProt P08684)
[4] = molecular target: Cytochrome P450 2D6 (Homo sapiens, UniProt P10635);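 note: CYP2D6 member of a cytochrome P450 panel assay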
[5] = molecular target: T2, Cytochrome P450 3A4; conditions: Potency
[6] = molecular target: T3, Ubiquitin-conjugating enzyme E2 N (Homo sapiens, UniProt P61088); type: functional;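 note: Dose-response confirmation in a TR-FRET assay detecting UBC13-driven polyubiquitin chain formation, inhibition measured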
T3 sequence (P61088 whole entry): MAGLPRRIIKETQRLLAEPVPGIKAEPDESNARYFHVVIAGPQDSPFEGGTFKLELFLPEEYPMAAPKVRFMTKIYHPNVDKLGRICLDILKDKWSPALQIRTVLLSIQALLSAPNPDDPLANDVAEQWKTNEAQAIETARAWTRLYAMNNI

[7] = viability loss in THP-1 monocytes – THP-1 cells, cytotoxicity control for Vif-APOBEC3G degradation inhibitor project, dose response (AID 1117359); type: functional; conditions: THP-1
[8] = molecular target: Voltage-gated inwardly rectifying potassium channel KCNH2 (Homo sapiens, UniProt Q12809); conditions: Potency;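 note: confirmatory quantitative high-throughput screen measuring inhibition of hERG channel activity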
[9] = NIH3T3 cell viability loss – ATP luminescence, mouse fibroblasts, counter-screen, dose response (AID 2010); type: functional, cell-based;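 note: cells exposed to compound for about 90 hours before reading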
[10] = Trypanosoma cruzi growth suppression in host cells – NIH3T3 host cells, beta-gal luminescence, confirmation (AID 2044); type: functional, cell-based;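 note: intracellular parasites grown in NIH/3T3 mouse fibroblasts as host cells; luminescent beta-galactosidase reporter signal from transgenic T. cruzi replicating inside host cells; inhibitors lower the luminescence signal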
[11] = molecular target: T4, High affinity choline transporter 1 (Homo sapiens, UniProt Q9GZV3); assay: human choline transporter blockers, potency – cell-based, 5-point CRC, membrane potential dye, dose response (AID 504840); type: functional
T4 sequence (Q9GZV3 whole entry): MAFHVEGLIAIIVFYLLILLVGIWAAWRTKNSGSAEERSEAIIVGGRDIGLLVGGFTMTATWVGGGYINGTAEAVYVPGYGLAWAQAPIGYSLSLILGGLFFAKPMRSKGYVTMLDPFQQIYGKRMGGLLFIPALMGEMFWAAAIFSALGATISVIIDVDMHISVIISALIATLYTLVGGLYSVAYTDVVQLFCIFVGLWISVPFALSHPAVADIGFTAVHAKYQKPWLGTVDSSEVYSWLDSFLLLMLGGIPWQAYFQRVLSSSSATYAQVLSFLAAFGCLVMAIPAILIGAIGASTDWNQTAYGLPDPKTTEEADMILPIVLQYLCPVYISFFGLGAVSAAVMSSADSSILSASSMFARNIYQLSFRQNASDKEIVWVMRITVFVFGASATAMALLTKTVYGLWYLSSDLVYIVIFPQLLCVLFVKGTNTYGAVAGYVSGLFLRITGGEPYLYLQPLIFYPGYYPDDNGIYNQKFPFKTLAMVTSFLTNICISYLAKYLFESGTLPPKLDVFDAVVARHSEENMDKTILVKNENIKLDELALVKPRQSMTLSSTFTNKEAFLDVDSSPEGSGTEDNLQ

[12] = molecular target: T5, Cytochrome P450 1A2 (Homo sapiens, UniProt P05177);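 note: PubChem cytochrome P450 panel assay, CYP1A2 panel member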
T5 sequence (P05177 whole entry): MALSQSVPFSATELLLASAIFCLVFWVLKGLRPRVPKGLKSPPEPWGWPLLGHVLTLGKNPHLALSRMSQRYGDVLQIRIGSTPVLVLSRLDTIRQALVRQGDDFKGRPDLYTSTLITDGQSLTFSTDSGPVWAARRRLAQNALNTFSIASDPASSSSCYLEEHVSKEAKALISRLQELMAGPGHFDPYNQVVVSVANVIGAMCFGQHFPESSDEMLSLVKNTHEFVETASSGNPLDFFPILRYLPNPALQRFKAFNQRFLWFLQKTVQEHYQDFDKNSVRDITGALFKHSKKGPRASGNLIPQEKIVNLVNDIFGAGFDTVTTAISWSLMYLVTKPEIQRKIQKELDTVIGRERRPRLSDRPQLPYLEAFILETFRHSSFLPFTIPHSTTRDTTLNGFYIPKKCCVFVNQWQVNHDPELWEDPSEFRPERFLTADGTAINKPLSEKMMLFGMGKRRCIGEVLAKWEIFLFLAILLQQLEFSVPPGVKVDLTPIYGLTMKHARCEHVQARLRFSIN

[13] = molecular target: Cytochrome P450 2C9 (Homo sapiens, UniProt P11712)
[14] = molecular target: Heat shock protein HSP 90-alpha (Homo sapiens, UniProt P07900); type: functional, organism-based
[15] = reduction of Shn3 3'UTR-driven luciferase in osteoblasts – cell-based, Clone20 osteoblasts, firefly luciferase, cherry-picked, dose response (AID 624132); type: functional;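 note: firefly luciferase luminescence from reporter carrying the Shn3 3'UTR in osteoblasts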
[16] = non-specific 3'UTR reporter inhibition in Clone20-Shn3RL – cell-based, Renilla luciferase, cherry-picked, counter-screen for Shn3 inhibitor project, dose response (AID 624133); type: functional
[17] = loss of viability in HepG2 cells – cell-based, CellTiter-Glo, cherry-picked, cytotoxicity control for Shn3 inhibitor project, dose response (AID 624134); type: functional
[18] = Luminescence Cell-Based Dose Retest to Confirm Inhibitors of Cancer Stem Cells. [Related pubchem assays (depositor defined):AID2717, AID2721]; type: functional; conditions: Homo sapiens
[19] = system: Vero; assay: viability of Vero cells under compound – cytotoxicity control for flavivirus capping enzyme inhibitors (AID 588742); type: functional; conditions: Chlorocebus sabaeus
[20] = viability of uninfected HEp-2 cells – cell-based, HTS, cytotoxicity control for RSV inhibitor project, dose response (AID 2410); type: functional; conditions: human respiratory syncytial virus
[21] = molecular target: Cytochrome P450 2C19 (Homo sapiens, UniProt P33261); assay: Cytochrome panel assay with activity outcomes. Panel member name: p450-cyp2c19 Compounds with AC50 equal or less than 10 uM are considered active; type: functional; conditions: read-out: AC50
[22] = P. falciparum Dd2 growth inhibitors, dose response, SYBR Green, cherry-picked samples (AID 1159567); type: functional, cell-based
[23] = microbe, parasite or virus in culture; type: functional; conditions: Mycobacterium tuberculosis
[24] = system: INS1; assay: INS-1E survival protection against cytokine death – cell-based, luminescence, retest, dose response (AID 449756); type: functional; conditions: Rattus norvegicus;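 note: cell death triggered by IL-1 beta plus TNF-alpha plus IFN-gamma mixture; protective hits raise ATP signal compared with cytokine alone wells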

T2 sequence (P08684 whole entry): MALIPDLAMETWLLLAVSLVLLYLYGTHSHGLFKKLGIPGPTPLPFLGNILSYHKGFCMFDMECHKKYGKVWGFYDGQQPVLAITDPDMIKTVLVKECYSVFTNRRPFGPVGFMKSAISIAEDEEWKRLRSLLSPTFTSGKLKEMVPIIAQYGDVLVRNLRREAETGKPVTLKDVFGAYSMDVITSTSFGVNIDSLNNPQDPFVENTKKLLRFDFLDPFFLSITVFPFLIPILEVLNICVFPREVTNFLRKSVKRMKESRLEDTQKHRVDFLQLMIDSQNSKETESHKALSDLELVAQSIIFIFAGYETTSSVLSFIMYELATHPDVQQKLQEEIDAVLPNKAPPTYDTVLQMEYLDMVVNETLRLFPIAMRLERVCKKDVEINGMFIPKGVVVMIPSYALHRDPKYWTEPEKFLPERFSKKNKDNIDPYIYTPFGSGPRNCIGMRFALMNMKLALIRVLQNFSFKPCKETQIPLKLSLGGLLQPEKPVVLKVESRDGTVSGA
Voltage-gated inwardly rectifying potassium channel KCNH2, sequence (Q12809 whole entry): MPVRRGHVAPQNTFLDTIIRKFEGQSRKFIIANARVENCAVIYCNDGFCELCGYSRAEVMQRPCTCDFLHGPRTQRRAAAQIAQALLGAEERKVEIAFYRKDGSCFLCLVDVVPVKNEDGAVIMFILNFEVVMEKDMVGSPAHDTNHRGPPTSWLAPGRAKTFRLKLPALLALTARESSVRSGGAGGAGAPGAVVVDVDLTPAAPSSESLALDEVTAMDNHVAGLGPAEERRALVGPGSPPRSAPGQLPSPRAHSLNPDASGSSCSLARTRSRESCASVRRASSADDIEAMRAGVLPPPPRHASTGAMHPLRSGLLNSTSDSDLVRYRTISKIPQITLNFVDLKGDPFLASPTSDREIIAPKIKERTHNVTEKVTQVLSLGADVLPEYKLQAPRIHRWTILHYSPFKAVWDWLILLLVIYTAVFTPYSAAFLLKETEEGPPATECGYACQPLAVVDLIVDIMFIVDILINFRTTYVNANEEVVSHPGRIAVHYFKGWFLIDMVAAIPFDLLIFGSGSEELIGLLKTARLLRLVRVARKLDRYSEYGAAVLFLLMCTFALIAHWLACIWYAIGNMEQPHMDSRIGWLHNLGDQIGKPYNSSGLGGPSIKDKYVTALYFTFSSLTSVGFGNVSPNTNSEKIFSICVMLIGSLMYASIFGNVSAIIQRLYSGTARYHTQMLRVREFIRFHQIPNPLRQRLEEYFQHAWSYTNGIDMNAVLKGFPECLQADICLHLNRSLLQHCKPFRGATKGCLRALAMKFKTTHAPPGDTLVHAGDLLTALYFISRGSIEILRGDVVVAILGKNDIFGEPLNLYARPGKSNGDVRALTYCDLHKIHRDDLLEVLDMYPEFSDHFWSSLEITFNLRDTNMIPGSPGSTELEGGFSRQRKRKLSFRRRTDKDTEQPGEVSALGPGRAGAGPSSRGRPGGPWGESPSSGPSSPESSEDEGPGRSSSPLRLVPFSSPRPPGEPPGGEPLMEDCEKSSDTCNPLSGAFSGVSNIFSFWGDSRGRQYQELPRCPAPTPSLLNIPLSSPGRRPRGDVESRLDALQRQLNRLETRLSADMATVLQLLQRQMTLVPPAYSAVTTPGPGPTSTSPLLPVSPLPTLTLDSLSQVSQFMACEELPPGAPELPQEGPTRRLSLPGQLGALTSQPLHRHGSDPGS
Cytochrome P450 2C9, sequence (P11712 whole entry): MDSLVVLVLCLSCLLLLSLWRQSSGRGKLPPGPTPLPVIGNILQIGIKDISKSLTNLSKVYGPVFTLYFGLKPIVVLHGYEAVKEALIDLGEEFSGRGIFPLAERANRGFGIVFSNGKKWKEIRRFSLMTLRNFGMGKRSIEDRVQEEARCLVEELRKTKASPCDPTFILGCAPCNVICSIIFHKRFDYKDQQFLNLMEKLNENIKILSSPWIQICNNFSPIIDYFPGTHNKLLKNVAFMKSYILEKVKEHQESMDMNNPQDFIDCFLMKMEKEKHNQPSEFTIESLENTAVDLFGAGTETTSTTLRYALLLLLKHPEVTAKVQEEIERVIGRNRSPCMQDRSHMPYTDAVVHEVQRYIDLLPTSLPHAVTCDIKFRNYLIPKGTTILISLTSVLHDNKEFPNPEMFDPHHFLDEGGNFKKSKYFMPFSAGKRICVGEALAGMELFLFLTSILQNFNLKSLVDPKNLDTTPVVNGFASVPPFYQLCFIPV
Cytochrome P450 2D6, sequence (P10635 whole entry): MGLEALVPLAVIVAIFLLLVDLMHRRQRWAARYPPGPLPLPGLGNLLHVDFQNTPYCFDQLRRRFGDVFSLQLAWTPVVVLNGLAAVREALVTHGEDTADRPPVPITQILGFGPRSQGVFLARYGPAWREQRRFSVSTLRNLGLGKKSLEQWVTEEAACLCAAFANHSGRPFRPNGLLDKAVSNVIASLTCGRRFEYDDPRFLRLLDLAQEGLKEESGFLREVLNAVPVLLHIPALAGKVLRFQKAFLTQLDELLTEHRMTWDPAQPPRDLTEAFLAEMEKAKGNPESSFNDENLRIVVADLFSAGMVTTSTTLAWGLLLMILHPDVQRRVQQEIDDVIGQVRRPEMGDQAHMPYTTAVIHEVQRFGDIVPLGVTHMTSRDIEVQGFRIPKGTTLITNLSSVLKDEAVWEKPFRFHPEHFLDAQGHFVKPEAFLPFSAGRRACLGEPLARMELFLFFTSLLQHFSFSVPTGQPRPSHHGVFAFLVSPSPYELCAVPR
Cytochrome P450 2C19, sequence (P33261 whole entry): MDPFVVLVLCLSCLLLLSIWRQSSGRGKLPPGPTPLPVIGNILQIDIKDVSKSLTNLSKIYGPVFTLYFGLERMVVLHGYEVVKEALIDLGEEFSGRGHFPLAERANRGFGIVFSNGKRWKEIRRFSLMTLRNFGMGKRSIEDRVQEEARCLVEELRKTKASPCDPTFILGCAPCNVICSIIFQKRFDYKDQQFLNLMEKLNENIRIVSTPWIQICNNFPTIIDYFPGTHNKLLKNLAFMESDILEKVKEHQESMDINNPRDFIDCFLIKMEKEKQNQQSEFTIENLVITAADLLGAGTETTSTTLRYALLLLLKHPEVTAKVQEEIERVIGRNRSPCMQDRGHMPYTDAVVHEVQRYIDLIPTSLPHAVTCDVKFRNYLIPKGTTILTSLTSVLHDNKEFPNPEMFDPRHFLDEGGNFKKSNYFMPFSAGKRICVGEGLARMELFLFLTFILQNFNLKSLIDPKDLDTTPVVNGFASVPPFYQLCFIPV

## COCCN1CSC(=S)N(Cc2ccco2)C1
[1]
  AC50: 0.688 µM (active)

## CCN(CC)CCNC(C(=O)Nc1cc(C(F)(F)F)ccc1Cl)c1ccccc1 (centres undefined)
[2]
  IC50: 9.32 µM (active)

## O=C(c1nc2ccc(Cl)cn2c1CN1CCCC1)N1CCc2ccccc2C1
[2]
  IC50: 17.5 µM (active)

## Cc1noc(C)c1C(=O)N1CCC2(CCN(C(=O)Nc3ccccc3)CC2)CC1
[3]
  AC50: inconclusive
[4]
  AC50: 12.6 µM (inconclusive)

## COc1ccc(-c2coc3ccc(OC4OC(COC(C)=O)C(OC(C)=O)C(OC(C)=O)C4OC(C)=O)cc3c2=O)cc1 (centres undefined)
[5]
  AC50: 1.58 µM (inconclusive)

## COC(=O)C1=C(C)N(Cc2ccccc2)c2c(C(=O)OC)c(C(=O)OC)c(C(=O)OC)c(=O)n2C1c1ccccc1 (centres undefined)
[5]
  AC50: 5.01 µM (inconclusive) and 3.98 µM (inconclusive)

## CCCN(CCC)CCNC(=O)c1cc2c(=O)n(CC)c3ccccc3c2s1
[6]
  IC50: > 20 µM (inactive)

## O=C1COc2ccc(C(=O)COC(=O)/C=C/c3ccco3)cc2N1
[2]
  IC50: 13.4 µM (active)

## CCc1ccc(C(=O)Nc2cccnc2Oc2ccc(Cl)cc2)cc1
[7]
  CC50: 18.4 µM (active)

## CCCCOC(=O)COc1ccc(Cl)cc1Cl
[8]
  AC50: 50.1 µM (inconclusive)

## CCOC(=O)c1c(CN2CCCCC2)oc2ccc(O)cc12
[6]
  IC50: > 20 µM (inactive)

## O=[N+]([O-])c1ccc(CSc2ncnc3c2ncn3[C@@H]2O[C@H](CO)[C@H](O)[C@H]2O)cc1
[8]
  AC50: 35.5 µM (inconclusive)

## N#Cc1c(N2CCN(C(=O)c3ccccc3Cl)CC2)nc(-c2ccccc2)c2c1CCCC2
[9]
  EC50: > 60 µM (not active)
[3]
  AC50: inconclusive
[10]
  EC50: 2.36 µM (active)

## Cc1cc2nc(C)c(Cl)c(O)n2n1
[11]
  IC50: 13.2 µM (active)

## O=C(COc1ccc([N+](=O)[O-])cc1)Nc1ccc(C(=O)Nc2ccccc2C(=O)O)cc1
[2]
  IC50: 12.3 µM (active)

## CCCn1nnc(NC(=O)Cc2ccccc2)n1
[12]
  AC50: 28.2 µM (inconclusive)
[3]
  AC50: inconclusive
[13]
  AC50: 0.00562 µM (inconclusive)

## COc1ccc(OCC(=O)OCCN(C)C)cc1
[11]
  IC50: 14.5 µM (active)

## COc1ccc(NC(=O)c2sc3ncnc(N4CCN(c5ccccn5)CC4)c3c2C)cc1Cl
[14]
  AC50: 6.41 µM (active)
[15]
  AC50: 4.08 µM (active)
[16]
  AC50: 3.19 µM (active)
[17]
  AC50: > 70 µM (inactive)
[1]
  AC50: 11.6 µM (active)

## N#Cc1cccc(NC(=O)N2CC3(CCN(C(=O)c4cnccn4)CC3)C2)c1
[12]
  AC50: 39.8 µM (inconclusive)
[3]
  AC50: inconclusive

## Cc1cccc(OCCCC(=O)NNC(=O)c2ccccn2)c1
[6]
  IC50: > 20 µM (inactive)

## Cc1ccc2nsnc2c1S(=O)(=O)N1CCN(CCc2ccccc2)CC1
[11]
  IC50: 11.8 µM (active)

## O=C1C2C3C=CC(CNS(=O)(=O)c4ccccc4)(O3)C2C(=O)N1c1ccc(Cl)cc1 (centres undefined)
[14]
  AC50: 7.09 µM (active)

## Cc1cccc(Nc2nc(-c3ccc(O)cc3O)cs2)n1
[18]
  AC50: 6.88 µM (active)
[19]
  CC50: > 40 µM (active)
[20]
  CC50: 43.6 µM (active)

## CC(=O)OC1CC(OC(C)=O)[C@]2(C)C(CC(=O)[C@]3(C)C2CC[C@@]2(C)C(C(=O)O)OC(=O)C4OC423)C1(C)C (some centres undefined)
[5]
  AC50: 39.8 µM (inconclusive)

## CCCCOC1(c2ccccc2)OC(=O)c2ccccc21 (centres undefined)
[3]
  AC50: inconclusive
[13]
  AC50: 17.8 µM (inconclusive)

## COC(=O)C1(C)C=CC2(CCCCC2)N1C(C)=O (centres undefined)
[5]
  AC50: 15.8 µM (inconclusive)

## COc1ccc(-c2cc(C(=O)N(C)CC(=O)Nc3ccccc3Br)c3ccccc3n2)cc1OC
[7]
  CC50: > 40 µM (active)

## O=C(CCCCCCCCC(=O)N/N=C/c1ccco1)N/N=C/c1ccco1
[2]
  IC50: 11.5 µM (active)

## Sc1nnc(-c2ccco2)n1/N=C/C=C/c1ccco1
[19]
  CC50: > 40 µM (active)

## CC(SCc1ccccc1)C(=O)N/N=C/c1ccc(OCC(=O)NCc2ccco2)cc1 (centres undefined)
[11]
  IC50: 2 µM (active)

## CCC/N=C/c1c(CCC)nn(-c2nc3ccccc3s2)c1O
[21]
  AC50: 20 µM (inconclusive)
[3]
  AC50: inconclusive
[4]
  AC50: 25.1 µM (inconclusive)

## CCCC(=O)Nc1ccc2c(c1)OC[C@H](C)N(Cc1ccc(-c3ccccn3)cc1)C[C@H](C)[C@H](OC)CN(C)C2=O
[22]
  AC50: 4.66 µM (active)

## COc1ccc2c3c([nH]c2c1)[C@@H](CO)N(Cc1cc(F)ccc1F)CC31CCN(C(=O)C2CCC2)CC1
[22]
  AC50: 3.77 µM (active)

## COc1ccc(C#Cc2ccc([C@H]3[C@H]4CN(C(=O)Nc5ccccc5)CCCCN4[C@H]3CO)cc2)cc1
[22]
  AC50: 4.8 µM (active)

## COc1ccc2c3c([nH]c2c1)[C@H](CO)N(Cc1ccccc1Cl)CC31CCN(C(C)=O)CC1
[22]
  AC50: 2.8 µM (active)

## CCCNC[C@H]1[C@@H](c2ccc(C3=CCCCC3)cc2)[C@@H](CO)N1C(=O)C1CCC1
[22]
  AC50: 4.2 µM (active)

## CCCCCCN(C(=O)CCCCCN1C(=O)NC(c2ccc(C(C)(C)C)cc2)C(C(=O)OCc2ccccc2)=C1C)C(C(=O)NCCCC)c1ccc(OCC(=O)OC)c(C(=O)OC)c1 (centres undefined)
[7]
  CC50: 13.2 µM (active)

## Cc1c(C(=O)O)c(O)cc2c1C(=O)c1c(O)c([C@H]3O[C@H](CO)[C@@H](O)[C@H](O)[C@H]3O)c(O)c(O)c1C2=O [CARMINE]
[8]
  AC50: 79.4 µM (inconclusive)

## CC(=O)OCC1=C(C(=O)O)N2C(=O)[C@@H](NC(=O)Cc3cccs3)[C@H]2SC1 [CEPHALOTHIN]
[2]
  IC50: 2.79 µM (active)

## ClC1=C(Cl)C2(Cl)C3C(Cl)C=CC3C1(Cl)C2(Cl)Cl (centres undefined) [HEPTACHLOR]
[18]
  AC50: 6.1 µM (active)
[8]
  AC50: 31.6 µM (inconclusive)

## CC[C@H](NC(=O)c1c(C)c(-c2ccccc2)nc2ccccc12)c1ccccc1 [SB-222200]
[8]
  AC50: 35.5 µM (inconclusive)

## Clc1ccc(C(Cn2ccnc2)OCc2csc3c(Cl)cccc23)c(Cl)c1 (centres undefined) [SERTACONAZOLE NITRATE]
[23]
  CC50: 24.4 µM (active)
[24]
  AC50: 10 µM (active)
[18]
  AC50: 1.85 µM (active)
[14]
  AC50: 0.233 µM (active)

## CC(C)N1CCN(c2ccc(OCC3COC(Cn4cncn4)(c4ccc(Cl)cc4Cl)O3)cc2)CC1 (centres undefined) [TERCONAZOLE]
[14]
  AC50: 2.19 µM (active)
[15]
  AC50: 52.1 µM (active)
[17]
  AC50: 21.2 µM (active)
